Measurements reported in patent publication WO2019242687A1, “1,3-dioxane-4,6-dione compound, and preparation method, pharmaceutical composition, and application thereof” (Shanghai Institute of Materia Medica of CAS, priority 2018, dated 2018).
Residue numbers refer to the chain shown, from its start. Entries after “also recorded” stand apart in the source; their conditions may differ.

How the values were obtained:
[1] = molecular target: T1, SIRT1 (Homo sapiens, UniProt Q96EB6); assay: SIRT1 enzyme activity test (deacetylase inhibition); format: biochemical
T1 sequence (Q96EB6 1-747): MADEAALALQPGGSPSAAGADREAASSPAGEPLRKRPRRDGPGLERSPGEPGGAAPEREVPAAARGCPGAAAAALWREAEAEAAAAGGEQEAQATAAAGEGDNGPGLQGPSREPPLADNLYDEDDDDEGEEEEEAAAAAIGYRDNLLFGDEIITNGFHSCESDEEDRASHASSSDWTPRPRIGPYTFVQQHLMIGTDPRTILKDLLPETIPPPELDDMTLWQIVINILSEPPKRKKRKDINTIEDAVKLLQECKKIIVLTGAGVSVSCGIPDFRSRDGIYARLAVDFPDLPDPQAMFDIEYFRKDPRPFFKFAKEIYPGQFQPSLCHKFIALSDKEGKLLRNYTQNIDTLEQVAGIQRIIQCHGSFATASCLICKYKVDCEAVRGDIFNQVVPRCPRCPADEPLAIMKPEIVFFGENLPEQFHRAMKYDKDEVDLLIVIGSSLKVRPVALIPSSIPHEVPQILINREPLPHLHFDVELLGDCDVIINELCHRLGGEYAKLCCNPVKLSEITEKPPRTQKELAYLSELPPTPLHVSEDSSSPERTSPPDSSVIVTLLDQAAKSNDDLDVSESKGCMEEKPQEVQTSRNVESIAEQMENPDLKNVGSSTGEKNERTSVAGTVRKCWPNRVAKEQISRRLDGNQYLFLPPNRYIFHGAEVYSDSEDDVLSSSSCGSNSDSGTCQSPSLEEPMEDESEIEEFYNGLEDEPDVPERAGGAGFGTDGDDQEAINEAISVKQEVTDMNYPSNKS

[2] = molecular target: T1, SIRT1; assay: Enzyme kinetic reaction test (inhibition type, Michaelis-Menten and Lineweaver-Burk plots); format: biochemical
[3] = molecular target: T2, SIRT1 N346A (Homo sapiens, UniProt Q96EB6, N346A); assay: Inhibitory constant on SIRT1 mutant N346A; format: biochemical
T2 construct: made in house
T2 sequence (Q96EB6 1-747 N346A): T1 sequence (Q96EB6 1-747) with N346A

[4] = molecular target: T3, SIRT1 D348A (Homo sapiens, UniProt Q96EB6, D348A); assay: Inhibitory constant on SIRT1 mutant D348A; format: biochemical
T3 construct: made in house
T3 sequence (Q96EB6 1-747 D348A): T1 sequence (Q96EB6 1-747) with D348A

[5] = molecular target: T4, mini-hSIRT1 protein (SIRT1 Cy5) (Homo sapiens, UniProt Q96EB6); assay: Microscale thermophoresis (MST) binding experiment
T4 sequence (Q96EB6 with tags, fused parts or gaps limits assumed): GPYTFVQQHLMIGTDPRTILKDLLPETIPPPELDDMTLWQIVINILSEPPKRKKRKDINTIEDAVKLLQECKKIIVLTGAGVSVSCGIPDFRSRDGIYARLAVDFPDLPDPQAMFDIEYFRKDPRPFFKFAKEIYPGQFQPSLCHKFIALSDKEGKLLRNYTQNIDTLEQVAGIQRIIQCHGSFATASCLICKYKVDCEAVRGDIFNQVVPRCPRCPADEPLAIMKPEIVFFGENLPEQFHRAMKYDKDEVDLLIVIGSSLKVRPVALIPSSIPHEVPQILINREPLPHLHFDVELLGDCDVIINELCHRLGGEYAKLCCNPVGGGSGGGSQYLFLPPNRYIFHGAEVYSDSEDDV

[6] = molecular target: T5, SIRT1 wild type (Homo sapiens, UniProt Q96EB6); assay: Inhibitory constant on SIRT1 wild type; format: biochemical
T5 sequence (Q96EB6 1-747): T1 sequence (Q96EB6 1-747)

[7] = fixed Abz polypeptide, with increasing S3 concentration
[8] = fixed NAD+, with increasing S3 concentration

For `COc1cc(C=C2C(=O)OC(c3ccccc3)OC2=O)cc(Br)c1O` (stereo not drawn) [Compound S3, 5-(3-bromo-4-hydroxy-5-methoxybenzylidene) -2-phenyl-1,3-dioxane-4,6-dione], the “concentration dependence of SIRT1 inhibition” value ([1]; Figure 1, in vitro) was “以浓度依赖性方式抑制SIRT1酶活; also recorded: inhibits SIRT1 activity in a concentration-dependent manner”, the IC50 ([1]; Table 2, 1 μM SIRT1, 500 μM NAD+, 10 μM substrate peptide, 37 °C, 30 min) was 1.31 ± 0.26 µM and the “Inhibition of SIRT1 deacylation (IC50)” value ([1]; Table 3, SITR1 [sic], 1 μM SIRT1, 500 μM NAD+, 10 μM substrate peptide) was 1.31 ± 0.26. For the same molecule, the “apparent Michaelis constant Km′ for NAD+” value [2, 7] was “不变”, the “initial velocity V0, NAD+ varied” value [2, 7] was “减小” and the “apparent Michaelis constant Km′ for Abz polypeptide” value [2, 8] was “减小”. For the same molecule, the “initial velocity V0, substrate Abz polypeptide varied” value [2, 8] was “减小”, the “type of inhibition toward NAD+” value ([2]; fixed acetylated peptide 30 μM, varied NAD+ 31.25-1000 μM, 0.5 μM SIRT1) was “非竞争性抑制; also recorded: NAD +的非竞争性抑制剂” and the “binding site of compound on SIRT1 relative to substrate polypeptide and NAD+ sites” value ([2]; inferred from kinetics) was “可能在底物多肽的结合位点; also recorded: 不在NAD +的结合位点”. For the same molecule, the Ki ([3]; mutant N346A) was 2.47 µM, the “sensitivity of mutant protein to compound S3” value ([3]; mutation of residue 346 (so in the source)) was “敏感性降低” and the Ki [4] was 4.33 µM. For the same molecule, the “type of inhibition toward NAD+” value ([5]; MST, Figure 3) was “non-competitive inhibitor of NAD +”, the “type of inhibition/binding toward Abz polypeptide” value ([5]; MST, Figure 3) was “competitive inhibitor of Abz polypeptide; also recorded: competitively binds to the binding site of the substrate polypeptide Abz” and the “Kd of binding to SIRT1 (change)” value ([5]; with 500 μM Abz polypeptide) was “increased”. For the same molecule, the “binding curve with SIRT1 protein (shift), with Abz polypeptide” value ([5]; with 500 μM Abz polypeptide) was “shifted to the right”, the “binding curve with SIRT1 protein (shift), with NAD+” value ([5]; with 5 mM NAD+) was “did not change significantly” and the Ki [6] was 0.16 µM.
